How the values were obtained:
PDE5 = PDE5 (Homo sapiens, UniProt O76074); experiment: PDE5 inhibition assay (SPA, 3H-cGMP); format: biochemical; conditions: Table 2
Protocol: (§1) Test compounds and PDE10A enzyme in assay buffer are added to 96-well whitewall/clear bottom isoplates (Wallac). The reaction is initiated by the addition of ^3H-cAMP (Amersham) or ^3H-cGMP (Amersham). Following a 45-minute incubation at room temperature, the reaction is stopped by the addition of SPA yttrium silicate beads (Amersham). The samples are incubated for an additional 30 minutes, and the plates are read in the Microbeta (Wallac) for 30 seconds in the SPA mode. Data may be expressed as a percentage of control. To measure PDE2, PDE3A, PDE4B, and PDE10A activity, 3H-cAMP may be used as a substrate; and to measure PDE5 activity, 3H-cGMP may be used as a substrate.
(§2) These same compounds were run in inhibition assays for PDE2, PDE3A, PDE4B, and PDE5. […] The compounds are therefore selective for PDE10A.

PDE2 = PDE2 (Homo sapiens, UniProt O00408); experiment: PDE2 inhibition assay (SPA, 3H-cAMP); format: biochemical; conditions: Table 2
PDE2, sequence (O00408 whole entry): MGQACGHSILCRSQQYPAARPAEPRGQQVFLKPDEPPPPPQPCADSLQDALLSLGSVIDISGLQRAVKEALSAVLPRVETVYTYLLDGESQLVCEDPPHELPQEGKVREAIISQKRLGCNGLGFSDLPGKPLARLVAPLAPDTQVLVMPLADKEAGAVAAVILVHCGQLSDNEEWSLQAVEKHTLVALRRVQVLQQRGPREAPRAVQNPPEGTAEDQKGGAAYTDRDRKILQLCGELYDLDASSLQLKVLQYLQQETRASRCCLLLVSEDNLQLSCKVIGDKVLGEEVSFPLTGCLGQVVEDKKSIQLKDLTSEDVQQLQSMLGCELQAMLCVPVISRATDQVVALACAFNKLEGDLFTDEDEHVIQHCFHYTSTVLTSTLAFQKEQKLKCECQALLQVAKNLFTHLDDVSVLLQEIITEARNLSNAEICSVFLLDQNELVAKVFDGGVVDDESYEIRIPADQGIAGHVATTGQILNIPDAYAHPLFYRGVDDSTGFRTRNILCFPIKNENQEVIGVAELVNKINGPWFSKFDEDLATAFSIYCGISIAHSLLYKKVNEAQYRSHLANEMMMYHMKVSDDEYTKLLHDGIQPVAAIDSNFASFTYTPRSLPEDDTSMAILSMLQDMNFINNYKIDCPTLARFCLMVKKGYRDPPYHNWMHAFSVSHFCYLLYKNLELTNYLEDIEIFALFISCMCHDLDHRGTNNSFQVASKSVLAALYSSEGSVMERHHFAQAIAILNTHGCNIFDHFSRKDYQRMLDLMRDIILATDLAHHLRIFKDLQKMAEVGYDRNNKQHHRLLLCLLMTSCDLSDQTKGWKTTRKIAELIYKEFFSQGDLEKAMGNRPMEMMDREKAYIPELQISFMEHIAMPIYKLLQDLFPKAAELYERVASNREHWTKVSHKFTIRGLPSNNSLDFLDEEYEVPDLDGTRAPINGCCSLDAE
Protocol: as §1, §2

PDE3A = PDE3A (Homo sapiens, UniProt Q14432); experiment: PDE3A inhibition assay (SPA, 3H-cAMP); format: biochemical; conditions: Table 2; read-out: PDE3 IC50
PDE3A, sequence (Q14432 whole entry, species assumed): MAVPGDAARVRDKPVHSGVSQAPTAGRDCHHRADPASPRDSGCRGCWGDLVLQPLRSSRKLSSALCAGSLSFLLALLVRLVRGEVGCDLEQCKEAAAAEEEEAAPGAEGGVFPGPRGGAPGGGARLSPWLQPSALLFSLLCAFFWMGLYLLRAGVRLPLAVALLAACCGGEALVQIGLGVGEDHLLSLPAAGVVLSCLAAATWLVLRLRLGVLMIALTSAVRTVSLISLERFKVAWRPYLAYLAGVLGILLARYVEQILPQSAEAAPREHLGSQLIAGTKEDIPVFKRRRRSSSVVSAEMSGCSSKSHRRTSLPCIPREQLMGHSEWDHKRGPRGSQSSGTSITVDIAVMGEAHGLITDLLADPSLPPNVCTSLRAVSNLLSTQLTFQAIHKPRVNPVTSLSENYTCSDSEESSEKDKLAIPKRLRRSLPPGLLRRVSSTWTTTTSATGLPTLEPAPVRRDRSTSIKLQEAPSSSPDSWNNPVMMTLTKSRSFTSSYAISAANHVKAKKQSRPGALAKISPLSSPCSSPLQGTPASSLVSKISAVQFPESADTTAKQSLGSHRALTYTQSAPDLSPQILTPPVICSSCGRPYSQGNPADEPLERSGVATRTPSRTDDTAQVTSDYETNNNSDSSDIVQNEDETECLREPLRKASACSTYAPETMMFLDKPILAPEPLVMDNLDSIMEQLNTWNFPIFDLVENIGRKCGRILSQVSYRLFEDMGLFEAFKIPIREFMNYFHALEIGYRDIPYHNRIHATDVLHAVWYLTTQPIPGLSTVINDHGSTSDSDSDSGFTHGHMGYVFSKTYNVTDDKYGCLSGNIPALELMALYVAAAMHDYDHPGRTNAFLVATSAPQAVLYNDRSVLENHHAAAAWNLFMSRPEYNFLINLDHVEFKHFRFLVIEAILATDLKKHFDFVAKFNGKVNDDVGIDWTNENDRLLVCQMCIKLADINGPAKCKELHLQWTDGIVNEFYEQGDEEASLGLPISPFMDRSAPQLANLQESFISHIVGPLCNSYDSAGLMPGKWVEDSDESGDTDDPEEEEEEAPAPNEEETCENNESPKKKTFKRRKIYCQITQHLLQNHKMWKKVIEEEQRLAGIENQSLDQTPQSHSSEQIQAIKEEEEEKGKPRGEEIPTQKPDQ
Protocol: as §1, §2

[1] = tested on: dispersed pancreatic islets; experiment: Dispersed islet assay (insulin secretion); format: cell-based, rat; conditions: 8 mM glucose, 0.3 μM forskolin, 30 minutes; control = 8 mM glucose and 0.3 μM forskolin
Protocol: Dispersed pancreatic islet isolation. Lean rats (male Sprague-Dawley, 200-250 g) are anesthetized with nembutal (60 mg/kg, i.p.) and the abdomen opened to expose the liver and pancreas. The pancreas is distended by injection of Hank's solution into the bile duct, and then the pancreas is excised and minced with scissors while in Hank's solution. After rinsing the tissue with buffer, the pancreas is digested for 10 minutes with collagenase, rinsed, and the islets separated from debris on a Ficoll gradient. The isolated islet fraction is then rinsed with buffer, incubated with EDTA for 8 minutes, followed by incubation with trypsin and DNAase I for an additional 10 minutes. The dispersed islets are transferred to culture media containing 8 mM glucose, seeded in “V-bottom” 96-well plates (2,500 cells per well), and cultured overnight.
For assaying insulinotropic compounds, the dispersed islets are pre-incubated in 3 mM glucose for 30 minutes. The islets are then transferred to media containing 8 mM glucose, test compounds, and 0.3 μM forskolin; and incubated for an additional 30 minutes. The media is then assayed for insulin content using, for example, a SPA assay. Insulin secretion is reported as fold over control (FOC), where the control is the amount of insulin secretion in the presence of 8 mM glucose and 0.3 μM forskolin.

PDE10A = PDE10A (Homo sapiens, UniProt Q9Y233); experiment: PDE10A inhibition assay (SPA, 3H-cAMP); format: biochemical; conditions: Table 2
PDE10A, sequence (Q9Y233 whole entry, species assumed): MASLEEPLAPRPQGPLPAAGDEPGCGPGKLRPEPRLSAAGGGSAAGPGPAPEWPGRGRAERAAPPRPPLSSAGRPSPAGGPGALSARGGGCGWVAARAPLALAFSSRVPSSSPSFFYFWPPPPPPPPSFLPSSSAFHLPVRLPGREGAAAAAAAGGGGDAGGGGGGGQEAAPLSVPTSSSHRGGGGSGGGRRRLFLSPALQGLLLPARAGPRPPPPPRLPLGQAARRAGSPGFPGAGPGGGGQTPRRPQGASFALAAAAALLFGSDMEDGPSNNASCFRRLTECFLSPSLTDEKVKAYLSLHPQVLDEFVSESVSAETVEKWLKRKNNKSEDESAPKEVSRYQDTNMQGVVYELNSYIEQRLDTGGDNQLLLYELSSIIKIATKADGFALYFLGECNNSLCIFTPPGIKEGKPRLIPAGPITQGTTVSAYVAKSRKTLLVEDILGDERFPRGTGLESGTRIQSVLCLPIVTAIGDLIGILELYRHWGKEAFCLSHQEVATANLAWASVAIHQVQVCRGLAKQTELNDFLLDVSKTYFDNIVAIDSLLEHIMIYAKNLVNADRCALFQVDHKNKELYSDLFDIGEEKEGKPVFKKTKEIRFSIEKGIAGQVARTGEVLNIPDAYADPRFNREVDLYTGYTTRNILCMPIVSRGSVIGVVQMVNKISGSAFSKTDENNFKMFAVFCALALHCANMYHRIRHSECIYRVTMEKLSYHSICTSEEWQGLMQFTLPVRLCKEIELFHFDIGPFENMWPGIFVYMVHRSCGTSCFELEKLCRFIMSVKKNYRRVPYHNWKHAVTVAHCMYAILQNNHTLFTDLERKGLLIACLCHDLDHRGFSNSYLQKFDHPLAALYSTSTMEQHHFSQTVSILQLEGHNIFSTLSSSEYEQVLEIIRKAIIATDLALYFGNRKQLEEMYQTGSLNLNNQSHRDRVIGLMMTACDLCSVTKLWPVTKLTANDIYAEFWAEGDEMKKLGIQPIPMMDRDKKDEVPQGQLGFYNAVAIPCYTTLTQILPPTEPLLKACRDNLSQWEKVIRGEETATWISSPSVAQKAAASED
Protocol: as §1

PDE4B = PDE4B (Homo sapiens, UniProt Q07343); experiment: PDE4B inhibition assay (SPA, 3H-cAMP); format: biochemical; conditions: Table 2
PDE4B, sequence (Q07343 whole entry, species assumed): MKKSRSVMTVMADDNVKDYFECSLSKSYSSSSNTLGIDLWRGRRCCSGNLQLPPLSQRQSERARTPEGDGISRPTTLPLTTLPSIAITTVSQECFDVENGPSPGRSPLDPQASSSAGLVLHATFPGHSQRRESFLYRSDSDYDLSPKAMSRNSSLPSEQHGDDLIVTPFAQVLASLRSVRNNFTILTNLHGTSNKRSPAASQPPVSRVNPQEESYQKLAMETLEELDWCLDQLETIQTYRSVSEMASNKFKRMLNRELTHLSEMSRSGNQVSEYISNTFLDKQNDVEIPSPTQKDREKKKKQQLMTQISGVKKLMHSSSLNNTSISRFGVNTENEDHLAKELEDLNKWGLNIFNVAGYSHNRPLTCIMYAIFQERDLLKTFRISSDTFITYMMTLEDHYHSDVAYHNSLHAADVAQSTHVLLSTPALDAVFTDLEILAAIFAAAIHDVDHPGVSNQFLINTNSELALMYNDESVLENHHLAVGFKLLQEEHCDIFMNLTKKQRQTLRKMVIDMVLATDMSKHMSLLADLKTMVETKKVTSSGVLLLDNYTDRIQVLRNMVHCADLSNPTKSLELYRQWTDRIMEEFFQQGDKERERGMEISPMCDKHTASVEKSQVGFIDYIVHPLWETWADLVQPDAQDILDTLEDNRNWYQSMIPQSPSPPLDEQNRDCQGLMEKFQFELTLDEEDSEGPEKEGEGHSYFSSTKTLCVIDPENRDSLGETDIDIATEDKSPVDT
Protocol: as §1, §2

| Structure (SMILES) | IC50 (PDE5) | IC50 (PDE2) | IC50 (PDE3A) | Insulin secretion, Fold-over-Control (FOC) [1] | IC50 (PDE10A) | IC50 (PDE4B) |
| --- | --- | --- | --- | --- | --- | --- |
| CCOC(=O)c1c(-c2ccc(OC)cc2OC)c(C)n2c1-c1cc(OC)c(OC)cc1CC2 [B] | > 10 µM | > 10 µM | > 10 µM | 1.44 | 0.0327 µM |  |
| CCOC(=O)c1c(-c2ccc(OC)c(OC)c2)c(C)n2c1-c1cc(OC)c(OC)cc1CC2 [C] | > 10 µM | > 10 µM | > 10 µM | 1.48 | 0.0263 µM | > 10 µM |
| CCOC(=O)c1c(-c2ccc(O)c3ncccc23)c(C)n2c1-c1cc(OC)c(OC)cc1CC2 [Compound A] |  |  | > 10 µM | 1.4 | 0.03 µM |  |
